Holding throughout (type): cell-based
The target in data set [1] is T1, hP2X7 (Homo sapiens, UniProt Q99572).
T1 construct: expressed in transfected cells; host or cells: HEK-293, stably transfected (gift of E. Adinolfi's group, Ferrara University)
T1 sequence (Q99572 1-595): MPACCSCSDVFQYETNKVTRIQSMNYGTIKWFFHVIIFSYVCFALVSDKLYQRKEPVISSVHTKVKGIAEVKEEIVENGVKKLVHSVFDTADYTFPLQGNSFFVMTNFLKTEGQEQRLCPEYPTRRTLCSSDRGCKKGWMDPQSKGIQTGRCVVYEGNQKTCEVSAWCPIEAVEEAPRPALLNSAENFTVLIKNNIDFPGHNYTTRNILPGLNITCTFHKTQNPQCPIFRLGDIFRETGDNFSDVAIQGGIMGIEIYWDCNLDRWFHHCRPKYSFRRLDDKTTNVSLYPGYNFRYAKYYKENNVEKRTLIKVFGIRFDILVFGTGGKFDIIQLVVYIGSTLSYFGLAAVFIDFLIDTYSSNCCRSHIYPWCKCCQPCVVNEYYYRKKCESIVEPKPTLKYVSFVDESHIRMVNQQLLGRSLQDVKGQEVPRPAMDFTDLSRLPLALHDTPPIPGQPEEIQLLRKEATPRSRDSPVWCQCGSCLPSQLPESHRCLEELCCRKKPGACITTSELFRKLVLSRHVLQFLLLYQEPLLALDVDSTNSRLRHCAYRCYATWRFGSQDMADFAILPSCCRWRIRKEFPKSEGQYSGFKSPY
As to the kind of experiment: Membrane potential assay with the blue dye (assay optimization). As to conditions: read-out: ATP EC50. The text has this:
The use of two or more complementary assays for assessing P2X7 modulator activity has been previously applied to help identify false positives as macropore formation is also linked to P2X2 and P2X4. , As P2X receptors are ion channels, they are probably best studied using electrophysiology techniques such as single-cell patch clamp, but these techniques can be laborious when testing libraries of compounds.

The test system of the next data set is HEK-293 WT cells. As to the kind of experiment: Cytotoxicity assay (CellTiter Blue). Conditions: 10 μM, 24 h, nontransfected HEK-293 cells. As to the method:
HEK-293 WT cells were seeded at 4 × 10^4 cells/well in 96-well plates precoated with poly-L-lysine. After 24 h, the cells were washed with DPBS and treated with test compounds (10 μM) in 2% FBS-containing medium for 24 h. After this, the medium containing the test compounds was replaced with 20% CellTiter-Blue reagent (Promega) in 2% FBS medium. After a 2-h incubation, fluorescence (excitation: […]; emission: […]) was measured using a Clariostar plate reader. Data were normalized to untreated control cells (100%) and wells without cells (0%).
5 Concentration inhibition curve determination for compound 2g (A) and evaluation of cytotoxicity for compounds 2, 9, and 2g. […] The data on the graph represent the mean from three independent experiments (n = 3 replicates per experiment). (B) The cytotoxicity of the compounds was evaluated on nontransfected HEK-293 cells using a CellTiter Blue assay. The cells were incubated for 24 h with the compounds at 10 μM. The fluorescent signal obtained from vehicle-treated cells (0.1% DMSO) was used to normalize the data to 100%, and the one obtained from wells not containing cells (BLANK) was set as 0%. The data are the combination of three biological replicates (error bars represent the SEM (n = 3)) analyzed by one-way ANOVA using Dunnet’s function (P**** < 0.0001; **< 0.002; * < 0.02; ns, non significant).
The potential cytotoxicity of the hit compounds identified, 2, 9, and 2g, was assessed at 10 μM by CellTiter Blue assay using nontransfected HEK-293 cells (Figure B).
For orientation: Alamar Blue is a resazurin reagent that responds to reducing activity.

Data set [2] concerns the target T1, hP2X7. As to the kind of experiment: Membrane Potential Red (MPR) dye assay, HEK-293 cells stably transfected with hP2X7. As to conditions: 10 μM, 1 mM ATP, hP2X7 HEK-293. How it is done:
Astrocytoma 1321 N1 (established by Dr. Gaia Pasqualetto) and HEK-293 (kindly gifted by E. Adinolfi’s group, Ferrara University) both stably transfected with hP2X7, were used to assess the activity of the small molecules selected from the VS. Cells were maintained in DMEM:F12 (PanBiotech) supplemented with 10% FBS, 1% pen-strep, and 150 μg/mL G418 (PanBiotech).
Cells were plated as described for the YO-PRO 1 dye uptake assay. MPR dye (Molecular Devices) was prepared following the manufacturer’s protocol and diluted 1:10 in ECS-LD buffer. After washing with DPBS, cells were incubated with the dye for 30 min at 37 °C. Fluorescence changes (excitation: 525 nm; emission: 560 nm) were recorded using a Clariostar plate reader during ATP-induced membrane depolarization. Baseline fluorescence was recorded for 5 cycles, and ATP was added via an automated injector (10 μL). Membrane depolarization was quantified as the ratio of the maximal fluorescence change over baseline intensity (Δ(F max–F0)/F0)).
4 Evaluation of compound 2 and 9 analogue activity using YO-PRO 1 and MPR assays. The activity of compound 2 (A and B) and 9 (C and D) analogues was evaluated in YO-PRO 1 (A and C) and MPR (B and D) assays. The compounds were tested at 10 μM and preincubated for either 20 (YO-PRO 1) or 30 min (MPR). The baseline was recorded for 5 cycles before ATP treatment (1 mM). Fluorescence was recorded for 25 (YO-PRO 1) or 5 min (MPR). The data were normalized by setting as 100% for the fluorescence measured from hP2X7 HEK-293 cells incubated with vehicle (0.1% DMSO) and treated with 1 mM ATP and 0% for the fluorescence recorded by the cells not treated with ATP. The data shown correspond to three independent biological replicates (3 technical replicates per experiment; error bars represent the SEM from the mean values of each biological replicate (n = 3)). The statistical analysis was performed with one-way Anova using Dunnett’s function (P**** < 0.0001; P*** < 0.0003; P** < 0.002; P* < 0.02).

The results in this text go back to publication PMC12264943, “Identification of New Human P2X7 Antagonists Using Ligand- and Structure-Based Virtual Screening” (Journal of Chemical Information and Modeling, 2025).

Entries after “also recorded” stand apart in the source; their conditions may differ.

In general, EC50 refers to the concentration that produces a half-maximal response.

Regarding `Nc1ncnc2c1ncn2[C@@H]1O[C@H](COP(=O)(O)OP(=O)(O)OP(=O)(O)O)[C@@H](O)[C@H]1O` [ATP, reference compound], the EC50 on hP2X7 [1] amounted to 2050 µM.

On to `O=C(NCCc1ccccc1)NC(Cc1ccc2c(c1)OCO2)Cc1ccc2c(c1)OCO2` [Compound 2], for which the “reduction in cell viability” value in the data set with HEK-293 WT cells is on record as approximately 10%.

Turning to `O=C(CSc1ccccc1C(=O)Nc1ccnn1Cc1cccnc1)Nc1ccc2c(c1)OCO2` [Compound 9], at hP2X7 [2], the “activity in MPR assay” value is on record as “neither compound 9 nor its analogues significantly affected the membrane depolarization; also recorded: lack of inhibition”. The “reduction in cell viability” value in the data set on HEK-293 WT cells is listed as “no significant reduction in cell viability”.
